Here are results for 5 compounds from USRE49223E1, “Water-soluble fluorescence compound and method for preparing the same” (SNU R&DB FOUNDATION, priority 2011, dated 2022).

Data set [1] relates to osteosarcoma cell line (U2OS). The experiment in a line: Western blotting test of cell extinction and damage markers (Caspase-3, PARP). The data set is classed as cell-based. The settings on record: U2OS osteosarcoma cells; 10 μM (FIG. 15). As for the experimental part: (§1) After a certain period of time, the degree of cell extinction is evaluated by examining the degree of expression of extinction and damage of a specific factor by using Western Blotting Test and the result is shown in FIG. 15.

Data set [2] can be described thus: Excitation and emission maxima by fluorescent spectrophotometer. The data set is classed as physicochemical. The note with it: solvent: Ref. Ex. 1 methanol, 2 ethanol, 3 n-propanol, 4 iso-propanol, 5 n-butanol, 6 DMSO. As for the experimental part:
UV absorption of the final fluorescent compound is determined by using a UV-VISIBLE spectrophotometer (Perkin Elmer, USA). Maximum values of excitation and emission are determined by using a fluorescent spectrophotometer (PTI, USA).
(§2) Except for conducting the photochemical reaction in the presence of an organic solvent such as ethanol (Reference Example 2), n-propanol (Reference Example 3), iso-propanol (Reference Example 4), n- butanol (Reference Example 5) or DMSO (Reference Example 6), respectively, the fluorescent compound is obtained from trans-resveratrol in the same manner as Reference Example 1.

Data set [3] is described as follows: Fluorescence quantum yield (relative vs rhodamin 6G; absolute PL quantum yield system). The data set is classed as physicochemical. The note with it: solvent: Ref. Ex. 1 methanol, 2 ethanol, 3 n-propanol, 4 iso-propanol, 5 n-butanol, 6 DMSO; for Absolute quantum yield: absolute PL quantum yield measurement system; for Relative quantum yield: relative to rhodamin 6G. As for the experimental part: The absolute quantum yield is determined by using an absolute PL quantum yield measurement system (QE-1000, Otsuka Electronics, Japan). The relative quantum yield is determined by measuring the absorbance and emission intensity for each five concentrations for one solvent, determining the slope of said measured values, and comparing the slope with that of rhodamin 6G (the quantum yield of rhodamin 6G in ethanol is 0.95).
as §2

Data set [4] concerns breast epithelial cell line. In words: Cytomorphology test (cytotoxicity). The note with it: breast epithelial cells, cultured about 72 hours, microscopic examination (FIG. 13). It counts as cell-based. As for the experimental part:
(§3) In the presence of a test compound or a comparative compound, a cell line is cultured for a certain period of time (about 72 hours) and then a cytotoxicity test is conducted. As a control group, a blank test is conducted in the same manner as above without adding any compound including the test compound and the comparative compound.

The next data set relates to breast epithelial cell. The experiment in a line: Trypan blue exclusion test (cytotoxicity). The data set is classed as cell-based. The settings on record: both test concentrations 1 μM and 10 μM (FIG. 14). How it is done:
as §3

Data set [5] relates to breast epithelial cell line. The experiment in a line: Western blotting test of cell extinction and damage markers (Caspase-3, PARP). It counts as cell-based. The note with it: 1, 10 and 100 μM (FIG. 15). As for the experimental part: as §1
(In general: Immunoblotting shows a protein as a band on a membrane.)

A short description of data set [6]: Irradiation with natural light (photochemical stability). It counts as physicochemical. The settings on record: natural light for a long period of time. An excerpt:
Meanwhile, prior art (PCT/EP01/06103) discloses using polydatin of formula 5 above as sunblock.

The conditions of data set [7]: in ethanol; reference standard; cited from earlier work.
[8] abbreviates: listed as Reference Example 2, in Ethanol solvent.
Where [9] appears, read: listed as Reference Example 3, in n-Propanol solvent.
Setting [10] is: listed as Reference Example 4, in iso-Propanol solvent.
Setting [11] is: listed as Reference Example 5, in n-Butanol solvent.
Setting [12] is: listed as Reference Example 6, in DMSO solvent.

With `COc1cc([C@@H]2c3cc4c(cc3[C@@H](O[C@@H]3O[C@@H]5CO[C@@H](C)O[C@H]5[C@H](O)[C@H]3O)[C@H]3COC(=O)[C@H]23)OCO4)cc(OC)c1O` [Etoposide], in data set [1], the “Western blot peaks resulting from cell extinction and damage” value was “significantly remarkable peak at 17 kDa, 19 kDa and 89 kDa positions”.

Take `CC(=O)/C=C/c1ccc2cc(O)cc(O)c2c1` [Reference Example 1, (E)-4-(6,8-dihydroxynaphthalen-2-yl) but-3-en-2-one]: the Emission is reported as 547 nm in data set [2]; 540 nm in data set [2] (setting [8]); 534 nm in data set [2] (setting [9]); 525 nm in data set [2] (setting [10]); 536 nm in data set [2] (setting [11]); 497 nm in data set [2] (setting [12]). In data set [2], this compound yielded an Excitation of 390 nm. Further, the Absolute quantum yield was 0.058 in data set [3]; 0.145 in data set [3] (setting [8]); 0.212 in data set [3] (setting [9]); 0.311 in data set [3] (setting [10]); 0.254 in data set [3] (setting [11]); 0.439 in data set [3] (setting [12]). Besides, the Relative quantum yield in data set [3] is 0.035; in data set [3] (setting [8]), 0.103; in data set [3] (setting [9]) it was 0.155; in data set [3] (setting [10]), 0.247; in data set [3] (setting [11]), 0.200; in data set [3] (setting [12]), 0.523.

For `CC(=O)/C=C/c1ccc2cc(O[C@@H]3O[C@H](CO)[C@@H](O)[C@H](O)[C@H]3O)cc(O)c2c1` [Resveratrone glucoside, (E)-4-(8-hydroxy-6-(((2S,3R,4S,5S,6R)-3,4,5-trihydroxy-6-(hydroxymethyl)tetrahydro-2H-pyran-2-yl)oxy)naphthalen-2-yl)but-3-en-2-one], in data set [4], the “cytomorphology and number change of the cultured cell vs control group” value was “no significant difference from the control group”. In the data set on breast epithelial cell, the “number of cells alive vs control group” value is recorded as “number of cells similar to that of the control group”. Also, in data set [5], the “Western blot peaks resulting from cell extinction and damage” value was “no peak at 17 kDa, 19 kDa and 89 kDa positions”.

As for `OC[C@H]1O[C@@H](Oc2cc(O)cc(/C=C/c3ccc(O)cc3)c2)[C@H](O)[C@@H](O)[C@@H]1O` [polydatin, resveratrol 3-O-β-glucoside], the “photochemical reaction product after irradiation” value in data set [6] is on record as “any photochemical reaction product could not be found”.

Regarding `CCN=c1cc2oc3cc(NCC)c(C)cc3c(-c3ccccc3C(=O)OCC)c-2cc1C.Cl` [rhodamin 6G], the quantum yield in data set [7] is 0.95.
